From PubChem BioAssay (NCI)
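Five concentrations, 48 hours, 96-well plates. TGI is the concentration that stops growth completely.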

Key:
Assay in all cases: NCI anticancer screen, dose series, 48 h
786-0 renal = test system: 786-0 renal
A498 renal = test system: A498 renal
A549 NSCLC = test system: A549 NSCLC
ACHN renal = test system: ACHN renal
CAKI-1 renal = test system: CAKI-1 renal
CCRF-CEM leukemia = test system: CCRF-CEM leukemia
COLO 205 colon = test system: COLO 205 colon
DLD-1 colon = test system: DLD-1 colon
DMS 114 small cell lung = test system: DMS 114 small cell lung
DMS 273 small cell lung = test system: DMS 273 small cell lung
EKVX NSCLC = test system: EKVX NSCLC
HCC-2998 colon = test system: HCC-2998 colon
HCT-116 colon = test system: HCT-116 colon
HCT-15 colon = test system: HCT-15 colon
HOP-18 NSCLC = test system: HOP-18 NSCLC
HOP-62 NSCLC = test system: HOP-62 NSCLC
HOP-92 NSCLC = test system: HOP-92 NSCLC
HT29 colon = test system: HT29 colon
IGROV1 ovarian = test system: IGROV1 ovarian
K-562 leukemia = test system: K-562 leukemia
KM12 colon = test system: KM12 colon
KM20L2 colon = test system: KM20L2 colon
LOX IMVI melanoma = test system: LOX IMVI melanoma
M14 melanoma = test system: M14 melanoma
M19-MEL melanoma = test system: M19-MEL melanoma
MALME-3M melanoma = test system: MALME-3M melanoma
NCI-H226 lung = test system: NCI-H226 lung
NCI-H23 lung = test system: NCI-H23 lung
NCI-H460 lung = test system: NCI-H460 lung
OVCAR-3 ovarian = test system: OVCAR-3 ovarian
OVCAR-4 ovarian = test system: OVCAR-4 ovarian
OVCAR-5 ovarian = test system: OVCAR-5 ovarian
OVCAR-8 ovarian = test system: OVCAR-8 ovarian
RPMI-8226 leukemia = test system: RPMI-8226 leukemia
SF-268 CNS = test system: SF-268 CNS
SF-295 CNS = test system: SF-295 CNS
SF-539 CNS = test system: SF-539 CNS
SK-MEL-2 melanoma = test system: SK-MEL-2 melanoma
SK-MEL-28 melanoma = test system: SK-MEL-28 melanoma
SK-MEL-5 melanoma = test system: SK-MEL-5 melanoma
SK-OV-3 ovarian = test system: SK-OV-3 ovarian
SN12C renal = test system: SN12C renal
SNB-19 CNS = test system: SNB-19 CNS
SNB-75 CNS = test system: SNB-75 CNS
SNB-78 CNS = test system: SNB-78 CNS
SW-620 colon = test system: SW-620 colon
TK-10 renal = test system: TK-10 renal
U251 CNS = test system: U251 CNS
UACC-257 melanoma = test system: UACC-257 melanoma
UACC-62 melanoma = test system: UACC-62 melanoma
UO-31 renal = test system: UO-31 renal
XF 498 CNS = test system: XF 498 CNS

Measured: TGI

Cc1ccccc1Cn1nc2ccccc2cc1=O
> 100 µM: 786-0 renal | A498 renal | A549 NSCLC | ACHN renal | CAKI-1 renal | CCRF-CEM leukemia | COLO 205 colon | DLD-1 colon | DMS 114 small cell lung | DMS 273 small cell lung | EKVX NSCLC | HCC-2998 colon | HCT-116 colon | HCT-15 colon | HOP-18 NSCLC | HOP-62 NSCLC | HOP-92 NSCLC | HT29 colon | IGROV1 ovarian | K-562 leukemia | KM12 colon | KM20L2 colon | LOX IMVI melanoma | M14 melanoma | M19-MEL melanoma | MALME-3M melanoma | NCI-H226 lung | NCI-H23 lung | NCI-H460 lung | OVCAR-3 ovarian | OVCAR-4 ovarian | OVCAR-5 ovarian | OVCAR-8 ovarian | RPMI-8226 leukemia | SF-268 CNS | SF-295 CNS | SF-539 CNS | SK-MEL-2 melanoma | SK-MEL-28 melanoma | SK-MEL-5 melanoma | SK-OV-3 ovarian | SN12C renal | SNB-19 CNS | SNB-75 CNS | SNB-78 CNS | SW-620 colon | TK-10 renal | U251 CNS | UACC-257 melanoma | UACC-62 melanoma | UO-31 renal | XF 498 CNS
